According to PMC12041525, “Mechanistic studies of mycobacterial glycolipid biosynthesis by the mannosyltransferase PimE” (Nature Communications, 2025):

Target: T1, MaPimE (Mycobacteroides abscessus, UniProt A0ABD7HTP3)
T1 construct: gene D2E76_03800; full-length WT, His-tagged, pNYCOMPSC23, E. coli BL21(DE3) pLysS; membrane fraction (kinetics) or DDM-purified in MSP1E3D1/POPC nanodiscs with Fab-E6 (cryo-EM); 46 kDa
Assay: cryo-EM structure of the complex, […] Å
Assay type: binding
Details: nanodisc, Fab-E6 bound; formed from added PPM; only first three prenyl units resolved

T1 sequence (A0ABD7HTP3 entry or part of it): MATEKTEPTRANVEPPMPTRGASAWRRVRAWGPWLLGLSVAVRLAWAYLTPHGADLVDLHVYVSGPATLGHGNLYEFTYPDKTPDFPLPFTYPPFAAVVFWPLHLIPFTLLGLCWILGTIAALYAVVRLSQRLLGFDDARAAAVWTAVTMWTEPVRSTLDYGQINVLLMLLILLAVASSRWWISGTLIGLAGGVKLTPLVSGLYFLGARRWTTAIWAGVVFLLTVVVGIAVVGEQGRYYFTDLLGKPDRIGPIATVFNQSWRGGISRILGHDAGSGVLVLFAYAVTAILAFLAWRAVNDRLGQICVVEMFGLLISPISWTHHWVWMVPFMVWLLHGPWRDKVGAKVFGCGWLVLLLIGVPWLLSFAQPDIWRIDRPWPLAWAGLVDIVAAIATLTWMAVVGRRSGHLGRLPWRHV

## CC(C)=CCC/C(C)=C/CC/C(C)=C\CC/C(C)=C\CC/C(C)=C\CC/C(C)=C\CC/C(C)=C\CC/C(C)=C\CC/C(C)=C\CC/C(C)=C\COP(=O)(O)O [PP, polyprenyl phosphate]
  cryo-EM structure of the complex, 3.5 Å: led us to interpret it as the PP portion of the PPM donor
